In assay [1] the target is T1, TGF-beta kinase ALK5 (GST-ALK5) (Homo sapiens, UniProt P36897).
T1 sequence (P36897 34-503): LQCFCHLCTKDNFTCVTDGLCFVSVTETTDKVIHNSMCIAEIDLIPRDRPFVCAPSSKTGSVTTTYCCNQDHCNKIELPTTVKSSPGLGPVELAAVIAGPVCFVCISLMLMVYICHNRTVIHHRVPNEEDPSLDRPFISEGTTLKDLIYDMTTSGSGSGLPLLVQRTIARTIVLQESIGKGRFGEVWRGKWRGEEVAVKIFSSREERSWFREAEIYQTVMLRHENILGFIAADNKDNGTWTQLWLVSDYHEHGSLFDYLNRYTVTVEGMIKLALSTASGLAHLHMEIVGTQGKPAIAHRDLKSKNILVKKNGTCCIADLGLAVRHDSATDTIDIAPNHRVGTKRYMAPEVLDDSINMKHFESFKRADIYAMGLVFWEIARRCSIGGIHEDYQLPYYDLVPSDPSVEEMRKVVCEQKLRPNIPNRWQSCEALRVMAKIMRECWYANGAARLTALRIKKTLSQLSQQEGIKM
Description: Test for the inhibition of ALK-5 (flashplate kinase assay). Type of assay: biochemical. To be noted: enzymatic; GST-ALK5, GST-SMAD2 substrate; read-out: IC50 [nM] [TGF-beta] enzym. ALK5. On the procedure: Test for the Inhibition of ALK-5
The experimental batches are carried out in a flashplate system with 384 wells/microtitre plate.
In each case, 31.2 nM of GST-ALK5, 439 nM of GST-SMAD2 and 3 mM of ATP (with 0.3 μCi of 33P-ATP/well) in a total volume of 35 μl of buffer (20 mM HEPES, 10 mM MgCl2, 5 mM MnCl2, 1 mM DTT, 0.1% of BSA, pH 7.4) per well are incubated without or with test substance at 5 to 10 different concentrations at 30 C for 45 min. The reaction is stopped using 25 μl of 200 mM EDTA solution and filtered off with suction after 30 min at room temperature.
The wells are washed 3 times with 100 μl of 0.9% aqueous NaCl solution, and the residual radioactivity is measured in a TopCount instrument (Perkin-Elmer). The IC50 values are calculated using the RS1 software.
The radioactivity (decompositions per minute) of the blank value (no use of test substance in the presence of 100 nM staurosporine) is subtracted from all other radioactivity values. The controls (kinase activity without test substance) are set equal to 100 percent and all other radioactivity values (after subtracting the blank value) are expressed set in relation thereto (for example in % of the control).
IC50 values (concentration of the test substance at 50% inhibition) are determined with the aid of statistics programmes, such as, for example, RS1.

The test system of assay [2] is TGF-beta-mediated growth inhibition, lung epithelial cell line Mv1Lu. Description: Cellular TGF-beta assay: elimination of TGF-beta-mediated growth inhibition. The class given is cell-based. Here is the method:
In-Vitro (Enzyme) Assay for Determination of the Efficacy of the Inhibitors of the Inhibition of TGF-Beta-Mediated Effects
As an example, the ability of the inhibitors to eliminate TGF-beta-mediated growth inhibition is tested.
Cells of the lung epithelial cell line Mv1Lu are sown in a defined cell density in a 96-well microtitre plate and cultivated overnight under standard conditions. Next day, the medium is replaced by medium which comprises 0.5% of FCS and 1 ng/ml of TGF-beta, and the test substances are added in defined concentrations, generally in the form of dilution series with 5-fold steps. The concentration of the solvent DMSO is constant at 0.5%. After a further two days, Crystal Violet staining of the cells is carried out. After extraction of the Crystal Violet from the fixed cells, the absorption is measured spectrophotometrically at 550 nm. It can be used as a quantitative measure of the adherent cells present and thus of the cell proliferation during the culture.

The next assay has as its target T2, Human ALK1 (Homo sapiens, UniProt P37023).
T2 construct: purchased ALK1
Description: Test for the inhibition of ALK-1. To be noted: Human ALK1, casein substrate, ATP 10 μM. The class given is biochemical. Here is the method: Test for the Inhibition of ALK-1
(Serine/threonine-protein kinase receptor R3, activin receptor-like kinase 1, ALK-1, TGF-B superfamily receptor type I, TSR-I, SKR3, ACVRLK1)
Substrate: Casein, 20 mg/ml

T2 sequence (P37023 22-503): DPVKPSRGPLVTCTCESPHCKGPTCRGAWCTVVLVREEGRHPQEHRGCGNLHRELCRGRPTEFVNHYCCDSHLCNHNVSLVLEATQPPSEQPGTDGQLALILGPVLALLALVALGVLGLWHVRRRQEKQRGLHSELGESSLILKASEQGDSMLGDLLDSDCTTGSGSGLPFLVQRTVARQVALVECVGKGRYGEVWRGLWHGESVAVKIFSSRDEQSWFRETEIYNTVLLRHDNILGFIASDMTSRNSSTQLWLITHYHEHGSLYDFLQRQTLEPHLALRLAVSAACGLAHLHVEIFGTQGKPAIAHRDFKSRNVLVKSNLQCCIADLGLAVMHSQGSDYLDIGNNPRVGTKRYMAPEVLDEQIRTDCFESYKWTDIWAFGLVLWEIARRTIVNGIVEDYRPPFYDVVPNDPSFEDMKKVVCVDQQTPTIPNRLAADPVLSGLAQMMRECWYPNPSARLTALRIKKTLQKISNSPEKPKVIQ

Turning to `Cc1[nH]c2ncccc2c1-c1cnc(N)c2cnccc12` [4-(2-methyl-1H-pyrrolo[2,3-b]pyridin-3-yl)-2,7-naphthyridin-1-ylamine], the values for the IC50 (in assay [1]; in assay [2]; at Human ALK1) were 4.6 nM, 28 nM and 79 nM, respectively.
Turning to `Cc1[nH]c2ncccc2c1-c1nccc2c(N)nccc12` [Compound A13], the results for the IC50 (in assay [1]; in assay [2]; against Human ALK1) were 16 nM, 160 nM and 200 nM, respectively.
In the case of `Nc1ncc(-c2c[nH]c3ncccc23)c2ccncc12` [Compound A24], the values for the IC50 in assay [1] and in assay [2] were 13 nM and 72 nM, respectively.
On to `Nc1nccc2c(-c3c[nH]c4ncccc34)nccc12` [Compound A32], for which the half-inhibitory concentration (IC50) is 43 nM in assay [1] and 770 nM in assay [2].

A word on the IC50: it is the concentration at which inhibition is half-maximal.

These data come from patent US9382244B2, “7-azaindole-2,7-naphthyridine derivative for the treatment of tumours” (Merck Patent GmbH, priority 2012, dated 2016).
